Laboratory results from PMC2728764 (ACS chemical biology, 2008).

Assays:
AdmH = AdmH (Pantoea agglomerans, UniProt Q84FL5); test: chiral radio-HPLC; type: biochemical; conditions: labelled compound ([14C]-L-Phe, 100 µM); 20 mM tricine pH 8.25, 30 °C
AdmJ = test: ATP-[…]PPi exchange assay; type: biochemical, Pantoea agglomerans; conditions: 5 mM ATP, 1 mM PPi, 10 mM MgCl2, 5 mM TCEP, 75 mM Tris pH 7.5, RT

For `N[C@@H](CC(=O)O)c1ccccc1` [(S)-β-Phe], the “chiral radio-HPLC” value (AdmH) was “The β-Phe generated by AdmH was found to be solely (S)-β-Phe” and the Km (AdmJ) was 130 ± 34 µM.
